Measured values as given in patent publication US6358941B1, “Treatment of arthritis disorders, rheumatoid arthritis and manifestations associated with rheumatoid disorders” (priority 1996, dated 2002).
Structures can show the parent of a compound that is named as a salt.

How the values were obtained:
[1] = test system: patient with Rheumatoid Arthritis and anaemia; test: Treatment of a patient with anaemia of chronic disorder (Example 6); format: in vivo, human
Description: The patient was treated in the period between Jan. 3, 1997 and Jan. 20, 1997.

[2] = test system: patients suffering from different arthritic disorders of rheumatoid origin; test: Treatment of patients with rheumatoid diseases (Example 7); format: in vivo, human
From the text: Stiffness: Joint stiffness is a complaint covering sensations which range from slight resistance to all movements through the normal range, to blocking of certain movements due to fixed anatomical changes. Certain types of stiffness are highly characteristic, such as early morning stiffness.
Early morning stiffness occurs primarily in rheumatoid arthritis, but also in other arthritic diseases. The patient awakes with distressing, painful stiffness of all affected joints. This is gradually “worked off ” by activity over one half to three hours or more. This “limbering up time” provides a reliable measure of inflammatory activity. In osteoarthritis stiffness tends to come on later in the day and is preceded by activity.
In one of the examples given of rheumatoid patients on galantamine, the parameters evaluated were tiredness, sleep, pain, and stiffness. […] All these parameters were evaluated with a questionaire and VAS (Visual Analogue Scale) which refer to the patients' reporting as regards the severity of the symptoms, represented by a 0-100 percentage line.

[3] = room temperature; galantamine and its acid addition salts; cited from earlier work
[4] = humans; cited from earlier work
[5] = test system: haemolysate cholinesterase (erythrocyte acetylcholinesterase); test: Cholinesterase activity in haemolysed whole blood (Sigma Diagnostics Cholinesterase (PTC) kit); format: biochemical, human; conditions: 0 to 2.5 μg/ml added in vitro
Description: (§1) SIGMA DIAGNOSTICS® CHOLINESTERASE (PTC) kit, available from Sigma Diagnostics, can be used for determining the activity and selectivity of cholinesterase inhibitors.
(§2) Reactions involved in the cholinesterase assay are as follows:
(§3) Propionylthiocholine+H2O→Propionic Acid+Thiocholine
(§4) Thiocholine+5, 5′-Dithiobis-2-Nitrobenzoic Acid→5-Thio-2-Nitrobenzoic Acid
(§5) 5-Thio-2-Nitrobenzoic Acid is assessed by measuring the absorbance at 405 nm. The rate of change in absorbance at 405 nm is directly proporational to cholinesterase activity.
(§6) The activity of erythrocyte cholinesterase may be calculated on the basis of the measurement of butyrylcholinesterase (pseudocholinesterase) in serum and cholinesterase in haemolyzed whole blood (haemolysate), both measured simultaneously by the method described above, and evaluated according to the haematocrit value according to the formula
HChE=(EChE×Hctg*)+(PChE×(1-Hct*))
In the above formulae, EChE is erythrocyte cholinesterase activity, PChE is plasma cholinesterase activity, HChE is haemolysate cholinesterase activity, and Hct is haematocrit value of the sample.
Another way of assessing the cholinesterase activity is to measure the plasma cholinesterase and the cholinesterase in purified haemolyzed erythrocytes. By doing this, the values are obtained directly.
Blood samples from 3 patients were tested with the Sigma test. […]

[6] = target: T1, butyrylcholinesterase (pseudocholinesterase) in serum (Homo sapiens, UniProt P06276); test: Cholinesterase activity in serum (Sigma Diagnostics Cholinesterase (PTC) kit); format: biochemical; conditions: 0 to 2.5 μg/ml added in vitro
T1 construct: butyrylcholinesterase (pseudocholinesterase) in serum; from tissue; host or cells: serum of patients
Description: as §1, §2, §3, §4, §5, §6
Blood samples from 3 patients were tested with the Sigma test. […] The results are shown below in table 1.1.

[7] = test system: patients with osteoarthritis; test: Treatment of patients with osteoarthritis (Example 5); format: in vivo, human
[8] = in vivo; cited from earlier work

T1 sequence (P06276 29-602): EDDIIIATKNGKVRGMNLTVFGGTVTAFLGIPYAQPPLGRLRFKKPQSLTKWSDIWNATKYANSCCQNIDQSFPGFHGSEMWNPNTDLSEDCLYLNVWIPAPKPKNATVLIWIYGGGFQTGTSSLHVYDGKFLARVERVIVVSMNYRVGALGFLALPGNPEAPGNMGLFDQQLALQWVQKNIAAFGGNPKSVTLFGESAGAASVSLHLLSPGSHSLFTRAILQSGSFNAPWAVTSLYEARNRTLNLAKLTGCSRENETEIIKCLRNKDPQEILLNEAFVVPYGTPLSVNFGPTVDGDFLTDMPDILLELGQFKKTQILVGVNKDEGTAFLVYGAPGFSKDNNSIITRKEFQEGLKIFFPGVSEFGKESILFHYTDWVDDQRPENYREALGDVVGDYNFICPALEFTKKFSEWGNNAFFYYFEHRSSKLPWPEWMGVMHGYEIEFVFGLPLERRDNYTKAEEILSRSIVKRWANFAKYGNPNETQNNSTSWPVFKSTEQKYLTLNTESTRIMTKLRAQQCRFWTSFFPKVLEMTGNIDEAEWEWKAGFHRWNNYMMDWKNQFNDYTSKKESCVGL

| SMILES | Haematocrit ([1]; 20-1-97, after treatment with 15 mg per day orally, normal 0.360-0.470, 0.342 on 3-1-97) [L/L] | White cells ([1]; 20-1-97, after treatment with 15 mg per day orally, normal 3.8-10.2, 6.6 on 3-1-97) [L⁻¹] | Red cells ([1]; 20-1-97, after treatment with 15 mg per day orally, normal 4.00-5.8, 3.72 on 3-1-97) [L⁻¹] | Haemoglobin ([1]; 20-1-97, after treatment with 15 mg per day orally, normal 118-158, 115 on 3-1-97) [g/L] | patients reporting a significant improvement in their symptoms ([2]; 13 patients, patient numbers 1, 2, 3, 5, 9, 10 and 12) [%] | augmentation of grip strength ([2]; one RA patient (patient number 1)) | solubility in water [3] | passing the blood-brain barrier [4] | Change of haemolysate cholinesterase activity with increased concentration [5] | Change of serum cholinesterase activity as response to addition [6] | joint pain symptoms, second patient ([7]; 10 mg per day (2 x 5 mg tablets), after three days, osteoarthritis not diagnosed) | osteoarthritis symptoms, first volunteer ([7]; 10 mg per day orally (2 x 5 mg), after seven days, maintained over 31 days, dose raised to 30 mg per day) | symptoms when medication was discontinued, first volunteer ([7]; after 31 day period) | laboratory blood tests reflecting anaemia ([1]; 15 mg per day (3 x 5 mg orally), after 14 days) | elimination half life [8] |
| --- | --- | --- | --- | --- | --- | --- | --- | --- | --- | --- | --- | --- | --- | --- | --- |
| COc1ccc2c3c1O[C@H]1C[C@@H](O)C=C[C@@]31CCN(C)C2 [galantamine] | 0.362 | 5.9e+09 | 3.94e+12 | 124 | 50 | over 50% | only sparingly soluble | capable of passing the blood-brain barrier | – | – | – | – | – | – | – |
| COc1ccc2c3c1O[C@H]1C[C@@H](O)C=C[C@@]31CCN(C)C2 [galantamine hydrobromide] | – | – | – | – | – | – | – | – | significant reduction | do not show any statistically significant changes | improvement in symptoms | improvement in osteoarthritis symptoms | Symptoms were reported to recur | significant improvement | over four |
